One assay deals with T1, PDGFRβ (Homo sapiens, UniProt P09619).
T1 construct: expressed in transfected cells; host or cells: porcine aorta endothelial (PAE) cells
Kind of assay: PAE-PDGFRβ Phosphorylation in PAE-PDGFRB Cells Assay. The conditions noted are these: PAE cells overexpressing human PDGFRβ; read-out: PAE PDGFR autophos IC50. The format is cell-based. Here is the method: This assay determines the ability of a test compound to inhibit the autophosphorylation of PDGFRβ in porcine aorta endothelial (PAE)-PDGFRβ cells. PAE cells that overexpress human PDGFRβ were used in this assay. The cells were cultured in Ham's F12 media supplemented with 10% fetal bovine serum (FBS) and 400 ug/ml G418. Twenty thousands cells were seeded in each well of a 96-well plate in 50 μL of growth media and allowed to attach for 6 hours at 37° C. Cells were then exposed to the starvation media (Ham's F12 media supplemented with 0.1% FBS) for 16 hours. After the starvation period was over, 10 μL of test agent in 5% DMSO in starvation media were added to the test wells and 10 μL of the vehicle (5% DMSO in starvation media) were added into the control wells. The final DMSO concentration in each well was 0.5%. Plates were incubated at 37° C. for 1 hour and the cells were then stimulated with 1 μg/mL PDGF-BB (R & D System) in the presence of 2 mM Na3VO4 for 8 minutes. The cells were washed once with 1 mm Na3VO4 in HBSS and lysed by adding 50 μL per well of lysis buffer. One hundred μL of dilution buffer were then added to each well and the diluted cell lysate was transferred to a 96-well goat ant-rabbit coated plate (Pierce), which was pre-coated with Rabbit anti Human PDGFRβ antibody (Santa Cruz). The plates were incubated at room temperature for 2 hours and washed seven times with 1% Tween 20 in PBS. HRP-PY20 (Santa Cruz) was diluted and added to the plate for a 30-minute incubation. Plates were then washed again and TMB peroxidase substrate (Kirkegaard & Perry) was added for a 10-minute incubation. One hundred μL of 0.09 N H2SO4 was added into each well of the 96-well plate to stop the reaction. Phosphorylation status was assessed by spectrophotometer reading at 450 nm. IC50 values were calculated by curve fitting using a four-parameter analysis.

A further assay has as its target T2, FGF-R1 (Homo sapiens, UniProt P11362, C488A/C584S/L457V).
T2 construct: starting from the endogenous methionine residue 456 to glutamate 766; made in house; host or cells: baculovirus vector expression system
Kind of assay: Fibroblast Growth Factor (FGF-R) spectrophotometric assay. In kind it is biochemical. The conditions noted are these: 1 μM compound; read-out: FGF-P % inhibit @1 μM. The text has this: The intracellular kinase domain of human FGF-R1 was expressed using the baculovirus vector expression system starting from the endogenous methionine residue 456 to glutamate 766, according to the residue numbering system of Mohammadi et al., Mol. Cell. Biol., 16, 977–989 (1996). In addition, the construct also has the following 3 amino acid substitutions: L457V, C488A, and C584S.
(§1) The production of ADP from ATP that accompanies phosphoryl transfer was coupled to oxidation of NADH using phosphoenolpyruvate (PEP) and a system having pyruvate kinase (PK) and lactic dehydrogenase (LDH). The oxidation of NADH was monitored by following the decrease of absorbance at 340 nm (e340=6.22 cm^−1 mM^−1) using a Beckman DU 650 spectrophotometer. Assay conditions for phosphorylated VEGF-R2A50 (indicated as FLVK-P in the tables below) were the following: 1 mM PEP; 250 μM NADH; 50 units of LDH/mL; 20 units of PK/mL; 5 mM DTT; 5.1 mM poly(E4Y1); 1 mM ATP; and 25 mM MgCl2 in 200 mM HEPES, pH 7.5. Assay conditions for unphosphorylated VEGF-R2Δ50 (indicated as FLVK in the tables) were the following: 1 mM PEP; 250 μM NADH; 50 units of LDH/mL; 20 units of PK/mL; 5 mM DTT; […]; 3 mM ATP; and 60 mM MgCl2 and 2 mM MnCl2 in 200 mM HEPES, pH 7.5. Assays were initiated with 5 to 40 nM of enzyme. Ki values were determined by measuring enzyme activity in the presence of varying concentrations of test compounds. The data were analyzed using Enzyme Kinetic and Kaleidagraph software.
The spectrophotometric assay was carried out as described above for VEGF-R2, except for the following changes in concentration: FGF-R=50 nM, ATP=2 mM, and poly(E4Y1)=15 mM.

Assay [1] relates to human umbilical vein endothelial cells (HUVEC). Kind of assay: HUVEC Proliferation Assay (VEGF-stimulated). In kind it is cell-based. Here is the method: This assay determines the ability of a test compound to inhibit the growth factor-stimulated proliferation of human umbilical vein endothelial cells (“HUVEC”). HUVEC cells (passage 3–4, Clonetics, Corp.) were thawed into EGM2 culture medium (Clonetics Corp) in T75 flasks. Fresh EGM2 medium was added to the flasks 24 hours later. Four or five days later, cells were exposed to another culture medium (F12K medium supplemented with 10% fetal bovine serum (FBS), 60 μg/mL endothelial cell growth supplement (ECGS), and 0.1 mg/mL heparin). Exponentially-growing HUVEC cells were used in experiments thereafter. Ten to twelve thousand HUVEC cells were plated in 96-well dishes in 100 μl of rich, culture medium (described above). The cells were allowed to attach for 24 hours in this medium. The medium was then removed by aspiration and 105 μl of starvation media (F12K+1% FBS) was added to each well. After 24 hours, 15 μl of test agent dissolved in 1% DMSO in starvation medium or this vehicle alone was added into each treatment well; the final DMSO concentration was 0.1%. One hour later, 30 μl of VEGF (30 ng/mL) in starvation media was added to all wells except those containing untreated controls; the final VEGF concentration was 6 ng/mL. Cellular proliferation was quantified 72 hours later by MTT dye reduction, at which time cells were exposed for 4 hours MTT (Promega Corp.). Dye reduction was stopped by addition of a stop solution (Promega Corp.) and absorbance at 595λ was determined on a 96-well spectrophotometer plate reader.
IC50 values were calculated by curve-fitting the response of A^595 to various concentrations of the test agent; typically, seven concentrations separated by 0.5 log were employed, with triplicate wells at each concentration. For screening compound library plates, one or two concentrations (one well per concentration) were employed, and the % inhibition was calculated by the following formula: % inhibition=(control−test)[…](control−starvation) where
control=A^595 when VEGF is present without test agent
test=A^595 when VEGF is present with test agent
starvation=A^595 when VEGF and test agent are both absent.

Assay [2] has as its target T3, unphosphorylated VEGF-R2Δ50 (Homo sapiens, UniProt P35968, DEL940-989/E990V).
T3 construct: VEGF-R2Δ50 contains residues 806–939 and 990–1171; made in house; host or cells: baculovirus/insect cell system
In words: VEGF-R2 coupled spectrophotometric assay, unphosphorylated construct (FLVK). In kind it is biochemical. The conditions noted are these: % inhibition at 50 nM compound; read-out: FLVK Ki % inh @ 50 nM.
Source text: This construct determines the ability of a test compound to inhibit tyrosine kinase activity. A construct (VEGF-R2Δ50) of the cytosolic domain of human vascular endothelial growth factor receptor 2 (VEGF-R2) lacking the 50 central residues of the 68 residues of the kinase insert domain was expressed in a baculovirus/insect cell system. Of the 1356 residues of full-length VEGF-R2, VEGF-R2Δ50 contains residues 806–939 and 990–1171, and also one point mutation (E99OV) within the kinase insert domain relative to wild-type VEGF-R2. Autophosphorylation of the purified construct was performed by incubation of the enzyme at a concentration of 4 μM in the presence of 3 mM ATP and 40 mM MgCl2 in 100 mM HEPES, pH 7.5, containing 5% glycerol and 5 mM DTT, at 4° C. for 2 h. […] See Parast et al., Biochemistry, 37,16788–16801 (1998).
as §1

T2 sequence (P11362 456-766 L457V/C488A/C584S): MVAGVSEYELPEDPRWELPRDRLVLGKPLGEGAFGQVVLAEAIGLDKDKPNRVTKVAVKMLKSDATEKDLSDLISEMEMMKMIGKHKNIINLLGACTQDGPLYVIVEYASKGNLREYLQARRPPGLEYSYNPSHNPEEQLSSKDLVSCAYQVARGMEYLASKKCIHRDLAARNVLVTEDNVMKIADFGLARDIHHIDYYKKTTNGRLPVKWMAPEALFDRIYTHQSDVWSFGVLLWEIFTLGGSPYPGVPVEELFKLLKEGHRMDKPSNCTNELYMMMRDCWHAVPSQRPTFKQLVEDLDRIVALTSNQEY
T3 sequence (P35968 with tags, fused parts or gaps DEL940-989/E990V limits assumed): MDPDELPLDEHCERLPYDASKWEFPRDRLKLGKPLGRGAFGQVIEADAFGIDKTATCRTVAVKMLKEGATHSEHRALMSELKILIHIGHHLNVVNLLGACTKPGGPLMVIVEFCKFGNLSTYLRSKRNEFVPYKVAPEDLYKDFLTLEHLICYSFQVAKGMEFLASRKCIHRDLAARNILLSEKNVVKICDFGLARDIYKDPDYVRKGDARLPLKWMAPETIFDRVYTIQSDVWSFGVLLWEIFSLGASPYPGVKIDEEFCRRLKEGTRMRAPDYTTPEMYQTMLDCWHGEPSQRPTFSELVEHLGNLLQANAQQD
T1 sequence (P09619 33-1106): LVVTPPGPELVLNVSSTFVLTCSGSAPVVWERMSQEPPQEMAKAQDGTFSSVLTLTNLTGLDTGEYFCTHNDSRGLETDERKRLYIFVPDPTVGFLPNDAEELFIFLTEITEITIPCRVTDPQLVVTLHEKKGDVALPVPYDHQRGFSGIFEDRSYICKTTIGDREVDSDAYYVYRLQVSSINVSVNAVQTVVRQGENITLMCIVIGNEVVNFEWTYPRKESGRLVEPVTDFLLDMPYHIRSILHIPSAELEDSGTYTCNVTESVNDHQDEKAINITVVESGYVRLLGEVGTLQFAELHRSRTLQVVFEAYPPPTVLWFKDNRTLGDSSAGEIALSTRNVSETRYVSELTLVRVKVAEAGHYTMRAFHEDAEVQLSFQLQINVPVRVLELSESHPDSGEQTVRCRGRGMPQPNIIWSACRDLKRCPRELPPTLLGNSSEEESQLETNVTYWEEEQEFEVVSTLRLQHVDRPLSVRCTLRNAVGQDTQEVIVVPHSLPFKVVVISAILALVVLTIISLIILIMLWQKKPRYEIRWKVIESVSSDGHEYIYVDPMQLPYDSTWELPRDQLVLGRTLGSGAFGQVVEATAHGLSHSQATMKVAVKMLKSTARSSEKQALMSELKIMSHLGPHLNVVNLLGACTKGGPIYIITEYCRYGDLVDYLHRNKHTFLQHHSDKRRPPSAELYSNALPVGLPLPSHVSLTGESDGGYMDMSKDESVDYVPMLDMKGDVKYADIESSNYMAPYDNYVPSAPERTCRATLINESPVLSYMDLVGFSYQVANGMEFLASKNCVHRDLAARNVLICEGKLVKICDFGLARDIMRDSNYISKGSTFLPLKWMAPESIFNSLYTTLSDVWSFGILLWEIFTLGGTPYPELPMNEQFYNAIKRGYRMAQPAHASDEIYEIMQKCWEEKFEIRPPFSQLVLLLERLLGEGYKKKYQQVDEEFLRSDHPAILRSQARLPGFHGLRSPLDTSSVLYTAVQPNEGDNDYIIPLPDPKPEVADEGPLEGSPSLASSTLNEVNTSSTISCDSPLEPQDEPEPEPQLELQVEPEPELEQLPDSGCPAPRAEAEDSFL

As to `O=C(NCC#CCO)c1ccccc1Nc1ccc2c(/C=N/n3cccc3)n[nH]c2c1` [Example 57, N-(4-Hydroxy-but-2-ynyl)-2-[3-(pyrrol-1-yliminomethyl)-1H-indazol-6-ylamino]-benzamide], the IC50 on PDGFRβ was 1.3 nM; in assay [1], less than 1.8 nM. The inhibition at 1 µM at FGF-R1 was 52%. For the same compound, the inhibition at 0.05 µM in assay [2] is 91%.

On to `C#CCNC(=O)c1ccccc1Nc1ccc2c(/C=C/c3cc(C)cc(C)n3)n[nH]c2c1` [Example 13, N-(prop-2-ynyl)-2-{3-[(E)-2-(2,4-dimethyl-pyridin-2-yl)-vinyl]-1H-indazol-6-ylamino}-benzamide], for which, at PDGFRβ, the IC50 turned out to be 6 nM. For the same compound, at FGF-R1, the inhibition at 1 µM was 63%. In assay [2], the inhibition at 0.05 µM was 80%.

Consider `Cc1cc(C)nc(/C=C/c2n[nH]c3cc(Nc4ncccc4C(=O)NCC#CC4CC4)ccc23)c1` [Example 25, N-(3-Cyclopropyl-prop-2-ynyl)-2-{3-[(E)-2-(4,6-dimethyl-pyridin-2-yl)-vinyl]-1H-indazol-6-ylamino}-nicotinamide], for which the inhibition at 1 µM on FGF-R1 is 13%. Further, the IC50 in assay [1] was 3 nM. In addition, in assay [2], the inhibition at 0.05 µM came out at 64%.

Take `C#CCNC(=O)c1ccccc1Nc1ccc2c(C(=O)NC)n[nH]c2c1` [Example 1(k), 6-(2-Prop-2-ynylcarbamoyl-phenylamino)-1H-indazole-3-carboxylic acid methylamide]: on FGF-R1, the inhibition at 1 µM came to 12%. This compound also showed an IC50 in assay [1] greater than 10 nM. Also, in assay [2], the inhibition at 0.05 µM came out at 27%.

With `O=C(NCC#CC1CC1)c1ccccc1Nc1ccc2c(/C=N/n3cccc3)n[nH]c2c1` [Example 55, N-(3-Cyclopropyl-prop-2-ynyl)-2-[3-(pyrrol-1-yliminomethyl)-1H-indazol-6-ylamino]-benzamide], the IC50 stood at 3.7 nM at PDGFRβ and 0.2 nM in assay [1]. The inhibition at 1 µM on FGF-R1 came out at 67%. In addition, in assay [2], the inhibition at 0.05 µM turned out to be 97%.

On to `Cc1ccnc(/C=C/c2n[nH]c3cc(Nc4ccccc4C(=O)NCc4nccn4C)ccc23)c1` [Example 49, N-(1-Methyl-1H-imidazol-2-ylmethyl)-2-{3-[2-(4-methyl-pyridin-2-yl)-vinyl]-1H-indazol-6-ylamino}-benzamide], for which, at FGF-R1, the inhibition at 1 µM came to 36%. Also, in assay [2], the inhibition at 0.05 µM is 11%.

On to `C#CCNC(=O)c1ccccc1Nc1ccc2c(/C=N/n3cccc3)n[nH]c2c1` [Example 63, N-Prop-2-ynyl-2-[3-(pyrrol-1-yliminomethyl)-1H-indazol-6-ylamino]-benzamide], for which the IC50 at PDGFRβ worked out at 2.4 nM; in assay [1], 0.1 nM. For the same compound, the inhibition at 1 µM on FGF-R1 amounted to 63%. In assay [2], the inhibition at 0.05 µM turned out to be 85%.

In the case of `C=C(C)CNC(=O)c1ccccc1Nc1ccc2c(/C=C/c3cc(C)ccn3)n[nH]c2c1` [Example 34, N-(2-Methyl-allyl)-2-{[(E)-2-(4-methyl-pyridin-2-yl)-vinyl]-1H-indazol-6-ylamino}-benzamide], the IC50 at PDGFRβ was 4.5 nM. The inhibition at 0.05 µM in assay [2] was determined as 72%.

For the compound `Cc1ccnc(/C=C/c2n[nH]c3cc(Nc4ccccc4C(=O)NCc4nc5ccccc5n4C)ccc23)c1` [Example 45, N-(1-Methyl-1H-benzoimidazol-2-ylmethyl)-2-{3-[(E)2-(4-methyl-pyridin-2-yl)-vinyl]-1H-indazol-6-ylamino}-benzamide], on FGF-R1, the inhibition at 1 µM amounted to 24%. In assay [2], the inhibition at 0.05 µM amounted to 28%.

With `Cc1ccnc(/C=C/c2n[nH]c3cc(Nc4ccccc4C(=O)NCc4cccc(C)n4)ccc23)c1` [Example 39, N-(6-Methyl-pyridin-2-ylmethyl)-2-{3-[2-(4-methyl-pyridin-2-yl)-vinyl]-1H-indazol-6-ylamino}-benzamide], at PDGFRβ, the IC50 turned out to be 4.7 nM. Further, the inhibition at 1 µM at FGF-R1 worked out at 76%. In assay [2], the inhibition at 0.05 µM came to 96%.

Turning to `CC(=O)OCC#CCNC(=O)c1ccccc1Nc1ccc2c(/C=C/c3cc(C)cc(C)n3)n[nH]c2c1` [Example 20, Acetic acid 4-(2-{3-[(E)-2-(4,6-dimethyl-pyridin-2-yl)-vinyl]-1H-indazol-6-ylamino}-benzoylamino)-but-2-ynyl ester], the inhibition at 1 µM on FGF-R1 was 35%. Moreover, half-maximal inhibition in assay [1] (IC50) was put at 0.084 nM. For the same compound, the inhibition at 0.05 µM in assay [2] amounted to 91%.

For `Cc1ccnc(/C=C/c2n[nH]c3cc(Nc4ccccc4C(=O)NCC#CCO)ccc23)c1` [Example 51, 2-{3-[(E)-2-(4-Methyl-pyridin-2-yl)-vinyl]-1H-indazol6-ylamino}-N-(4-hydroxy-but-2-ynyl)-benzamide], the inhibition at 1 µM on FGF-R1 stood at 52%. Moreover, in assay [2], the inhibition at 0.05 µM is 82%.
